Patent US11123354B2, “Method for the treatment of osteoarthritis” (ABIOGEN PHARMA S.P.A., priority 2016, dated 2021)

Experiment: Pharmacokinetics and knee joint localization of 14C-Chlodronate after single intra-articular injection
Format: in vivo, rat
Settings: for residual concentration in femoral articular cartilage / residual concentration in femoral articular cartilage as % of the value measured at t=30 minutes: first order exponential approximation; for radioactivity in Femoral Articular Cartilage / radioactivity in Tibial Articular Cartilage: osteoarthritic rats, single i.a. 0.1 mg (2 mg/ml)
Procedure: In this study the pharmacokinetics of ^14C-Chlodronate was evaluated, and the localization of the labeled compound in the knee joint following a single intra-articular injection of 0.1 mg of ^14C-Chlodronate, administered as aqueous solution in a concentration of 2 mg/ml, in sham and osteoarthritic rat models was verified.
The pharmacokinetic parameters of ^14C-Chlodronate were determined by measuring the radioactivity of blood samples collected at different timepoints from the time of injection.
The localization of the labeled compound in the knee joint was determined by leg x-rays. The fitting of radioactivity concentrations, expressed in μCi/g, was performed by using standard curves.

[1] = about two weeks after the injection
[2] = osteoarthritis rat model, 30 minutes from the injection

O=P(O)(O)[14C](Cl)(Cl)P(=O)(O)O [^14C-Chlodronate]
radioactivity mean value in the cartilage (168 hours (7 days) after the injection): about 25 μCi/g
radioactivity in cartilage as % of the value found half an hour after the injection (168 hours after the injection): more than 62%
residual concentration in femoral articular cartilage (about 1 month after injection): about 8.78 μCi/g
residual concentration in femoral articular cartilage as % of the value measured at t=30 minutes (about 1 month after injection): about 24.27%
residual concentration in femoral articular cartilage [1]: about 18.92 μCi/g
residual concentration in femoral articular cartilage as % of the value measured at t=30 minutes [1]: about 44.36%
concentration in both femoral and tibial cartilage relative to the value measured at t=30 minutes (about two weeks after the injection, first order exponential approximation of Table 7 data): > 40%
concentration of 14C-Chlodronate in the blood (after a few hours from the injection): very modest, practically negligible
radioactivity in Femoral Articular Cartilage (t = 30 minutes): 42.649 μCi/g
radioactivity in Tibial Articular Cartilage (t = 30 minutes): 36.935 μCi/g
radioactivity in Femoral Articular Cartilage (t = 6 hours): 36.163 μCi/g
radioactivity in Tibial Articular Cartilage (t = 6 hours): 27.299 μCi/g
radioactivity in Femoral Articular Cartilage (t = 24 hours): 34.712 μCi/g
radioactivity in Tibial Articular Cartilage (t = 24 hours): 27.840 μCi/g
radioactivity in Femoral Articular Cartilage (t = 72 hours): 25.561 μCi/g
radioactivity in Tibial Articular Cartilage (t = 72 hours): 22.331 μCi/g
radioactivity in Femoral Articular Cartilage (t = 168 hours): 28.020 μCi/g
radioactivity in Tibial Articular Cartilage (t = 168 hours): 21.165 μCi/g
radioactivity concentration in the articular cartilage [2]: about 40 μCi/g
radioactivity concentration in the synovial cavity and in the femoral and tibial bone [2]: lower than 1 μCi/g
